Experimental data as given in BindingDB's records for doi:10.1021/jm00001a001 (Biochem Therapeutic, 1995).

Target: Reverse transcriptase/RNaseH (Human immunodeficiency virus 1, UniProt Q72547)
Experiment: Ability to inhibit the HIV-1 reverse transcriptase in cord blood mononuclear cells.

IC50: 0.03 µM
SMILES: Cc1cn([C@H]2C[C@H](N=[N+]=[N-])[C@@H](CO)O2)c(=O)[nH]c1=O [1-((2R,4S,5S)-4-Azido-5-hydroxymethyl-tetrahydro-furan-2-yl)-5-methyl-1H-pyrimidine-2,4-dione]
